Measurements from patent US7427625B2, “Substituted thiatriazaacenaphthylene-6-carbonitrile kinase inhibitors” (Janssen Pharmaceutica, N.V., priority 2006, dated 2008).
pIC50: −log10 of the molar value.

Tests used:
Type in all cases: cell-based
[1] = test system: A375 malignant melanoma; assay: Cell Proliferation Inhibition Assay (14C-thymidine incorporation), A375; conditions: Homo sapiens, A-375
Description: (§1) The ability of a test compound to inhibit unregulated cell proliferation was determined by measuring incorporation of ^14C-labelled thymidine into newly synthesized DNA within cell lines derived from carcinomas originating from several tissues. Accordingly, the anti-proliferative effect of a compound on cells with a variety of phenotypes may be determined.
(§2) Carcinoma cell lines include those such as HeLa cervical adenocarcinoma (American Type Culture Collection (ATCC), Virginia, Cat. #CCL-2), A375 malignant melanoma (ATCC CRL-1619), SK-OV-3 ovarian adenocarcinoma (ATCC HTB-77), HCT-116 colon carcinoma (CCL-247), PC-3 prostate adenocarcinoma (ATCC CRL-1435), and MDA-MB-231 (Xenogen Corp.)
(§3) The carcinoma cells were trypsinized and counted. The cells (3000-8000 count) were added to each well of a 96-well CytoStar tissue culture treated scintillating microplate (Amersham #RPNQ0160) in complete medium (100 μL) and the plate was then incubated in complete medium for 24 hrs at 37° C. in an […] atmosphere containing 5% CO2. Test compound (1 μL) in 100% DMSO was added to the plate test-wells with DMSO only added to control-wells. The plate was incubated in complete medium for a second 24 hr period at 37° C. in an atmosphere containing 5% CO2.
(§4) An aliquot of a solution of Methyl ^14C-thymidine ([…]) (NEN #NEC568 or Amersham #CFA532) and complete medium (20 uL to provide 0.2 μCi/well) was then added to each well and the plate was incubated for a third 24 hr period at 37° C. in an atmosphere containing 5% CO2. The plate contents were then discarded, the plate was washed twice with PBS (200 μL) and then PBS (200 μL) was added to each well. The plate was sealed and the degree of methyl ^14C-thymidine incorporation was quantified on a Packard Top Count.

[2] = test system: HCT-116 colon carcinoma; assay: Cell Proliferation Inhibition Assay (14C-thymidine incorporation), HCT116; conditions: Homo sapiens
Description: as §1, §2, §3, §4

[3] = test system: HeLa cervical adenocarcinoma; assay: Cell Proliferation Inhibition Assay (14C-thymidine incorporation), HeLa; conditions: Homo sapiens
Description: as §1, §2, §3, §4

| SMILES | pIC50 [1] | pIC50 [2] | pIC50 [3] |
| --- | --- | --- | --- |
| CN(C)C1CCN(C(=O)c2sc3ncc(C#N)c4c3c2NC(=O)N4c2c(Cl)ccc3c2OCO3)CC1 [Cpd 41, 5-(5-chloro-benzo[1,3]dioxol-4-yl)-2-(4-dimethylamino-piperidine-1-carbonyl)-4-oxo-4,5-dihydro-3H-1-thia-3,5,8-triaza-acenaphthylene-6-carbonitrile] | < 4.00 | < 5.00 | < 4.00 |
| CN(C)C1CCN(Cc2ccc(NC(=O)c3sc4ncc(C#N)c5c4c3NC(=O)N5c3c(Cl)ccc4c3OCO4)cc2)CC1 [Cpd 42, 5-(5-chloro-benzo[1,3]dioxol-4-yl)-6-cyano-4-oxo-4,5-dihydro-3H-1-thia-3,5,8-triaza-acenaphthylene-2-carboxylic acid [4-(4-dimethylamino-piperidin-1-ylmethyl)-phenyl]-amide] | < 4.00 | < 4.00 | < 4.00 |
| COc1cc(NC(=O)c2sc3ncc(C#N)c4c3c2NC(=O)N4c2ccc(Oc3ccccc3)cc2)ccc1CN1CCOCC1 [Cpd 45, 6-cyano-4-oxo-5-(4-phenoxy-phenyl)-4,5-dihydro-3H-1-thia-3,5,8-triaza-acenaphthylene-2-carboxylic acid (3-methoxy-4-morpholin-4-ylmethyl-phenyl)-amide] | < 5.00 | < 5.00 | < 4.00 |
| CC(C)(C)OC(=O)NC1CCN(Cc2ccc(NC(=O)c3sc4ncc(C#N)c5c4c3NC(=O)N5c3c(Cl)ccc4c3OCO4)cc2)CC1 [Cpd 46, [1-(4-{[5-(5-chloro-benzo[1,3]dioxol-4-yl)-6-cyano-4-oxo-4,5-dihydro-3H-1-thia-3,5,8-triaza-acenaphthylene-2-carbonyl]-amino}-benzyl)-piperidin-4-yl]-carbamic acid tert-butyl ester] | < 5.00 | < 5.00 | < 5.00 |

Now from value to compound:

| pIC50 [1] | pIC50 [2] | pIC50 [3] | SMILES |
| --- | --- | --- | --- |
| 5.08 | 4.80 | < 5.00 | N#Cc1cnc2sc(C(=O)Nc3ccc(CCN4CCCCC4)cc3)c3c2c1N(c1ccc(Oc2ccccc2)cc1)C(=O)N3 [Cpd 48, 6-cyano-4-oxo-5-(4-phenoxy-phenyl)-4,5-dihydro-3H-1-thia-3,5,8-triaza-acenaphthylene-2-carboxylic acid [4-(2-piperidin-1-yl-ethyl)-phenyl]-amide] |
| 5.86 | 6.01 | 5.66 | N#Cc1cnc2sc(C(=O)Nc3ccc(CN4CCCCC4)cc3)c3c2c1N(c1ccc(Oc2ccccc2)cc1)C(=O)N3 [Cpd 49, 6-cyano-4-oxo-5-(4-phenoxy-phenyl)-4,5-dihydro-3H-1-thia-3,5,8-triaza-acenaphthylene-2-carboxylic acid (4-piperidin-1-ylmethyl-phenyl)-amide] |
